Source: ChEMBL document CHEMBL1201862, “PubChem BioAssay data set” (2004)
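Test compounds were applied to cells in 96-well plates for 48 hours at 5 doses. GI50 marks 50% less growth.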 Calls of active or inactive are those of the source. Rule as the data show it: active = GI50 up to about 1.1 µM and inactive = higher.

Key:
Assay in all cases: inhibition of tumour cell growth, NCI panel, 48 h
MDA-MB-231 = test system: MDA-MB-231
SF-295 = test system: SF-295
T47D = test system: T47D
RXF 393 = test system: RXF 393
HT-29 = test system: HT-29
M14 = test system: M14
OVCAR-5 = test system: OVCAR-5
HCT-15 = test system: HCT-15
K562 = test system: K562
PC-3 = test system: PC-3
Hs-578T = test system: Hs-578T
HCC 2998 = test system: HCC 2998
TK-10 = test system: TK-10
HOP-62 = test system: HOP-62
MCF7 = test system: MCF7
KM12 = test system: KM12
LOX IMVI = test system: LOX IMVI
U-251 = test system: U-251
SK-MEL-2 = test system: SK-MEL-2
ACHN = test system: ACHN
MDA-MB-435 = test system: MDA-MB-435
SK-MEL-5 = test system: SK-MEL-5
COLO 205 = test system: COLO 205
SF-539 = test system: SF-539
UO-31 = test system: UO-31
BT-549 = test system: BT-549
SF-268 = test system: SF-268
DU-145 = test system: DU-145
HL-60 = test system: HL-60
SK-OV-3 = test system: SK-OV-3
OVCAR-3 = test system: OVCAR-3
SNB-75 = test system: SNB-75
NCI-H226 = test system: NCI-H226
OVCAR-8 = test system: OVCAR-8
CAKI-1 = test system: CAKI-1
MDA-N = test system: MDA-N
RPMI-8226 = test system: RPMI-8226
MOLT-4 = test system: MOLT-4
SN12C = test system: SN12C
CCRF-CEM = test system: CCRF-CEM
NCI-H23 = test system: NCI-H23
SW-620 = test system: SW-620
UACC-257 = test system: UACC-257
EKVX = test system: EKVX
A549 = test system: A549
NCI-H460 = test system: NCI-H460
UACC-62 = test system: UACC-62
SR = test system: SR
A498 = test system: A498
OVCAR-4 = test system: OVCAR-4
786-0 = test system: 786-0
HOP-92 = test system: HOP-92
NCI/ADR-RES = test system: NCI/ADR-RES
SK-MEL-28 = test system: SK-MEL-28
HCT-116 = test system: HCT-116
IGROV-1 = test system: IGROV-1
NCI-H522 = test system: NCI-H522
Malme-3M = test system: Malme-3M
SNB-19 = test system: SNB-19

Q: What does the source list for `CCOC(=O)/C=C(\C(=O)OCC)n1cc(C)c(=O)n(Cc2cn(CCCCOC(C)=O)nn2)c1=O`?
A: GI50 (MDA-MB-231): 15.7 µM (inactive); GI50 (SF-295): 18.4 µM (inactive); GI50 (T47D): 11.6 µM (inactive); GI50 (RXF 393): 1.48 µM (inactive); GI50 (HT-29): 8.32 µM (inactive); GI50 (M14): 11.9 µM (inactive); GI50 (OVCAR-5): 12.4 µM (inactive); GI50 (HCT-15): 6.37 µM; GI50 (K562): 2.53 µM (inactive); GI50 (PC-3): 14.3 µM (inactive); GI50 (Hs-578T): 16.3 µM (inactive); GI50 (HCC 2998): 18.3 µM (inactive); GI50 (TK-10): 7.38 µM (inactive); GI50 (HOP-62): 18.4 µM (inactive); GI50 (MCF7): 5.47 µM (inactive); GI50 (KM12): 18.5 µM (inactive); GI50 (LOX IMVI): 6.62 µM (inactive); GI50 (U-251): 15.1 µM (inactive); GI50 (SK-MEL-2): 15.9 µM (inactive); GI50 (ACHN): 4.28 µM (inactive); GI50 (MDA-MB-435): 9.95 µM (inactive); GI50 (SK-MEL-5): 17.1 µM (inactive); GI50 (COLO 205): 2.98 µM (inactive); GI50 (SF-539): 1.95 µM (inactive); GI50 (UO-31): 14.5 µM (inactive); GI50 (BT-549): 10.5 µM (inactive); GI50 (SF-268): 14.2 µM (inactive); GI50 (DU-145): 19.8 µM (inactive); GI50 (HL-60): 2.27 µM (inactive); GI50 (SK-OV-3): 32.4 µM (inactive); GI50 (OVCAR-3): 13.3 µM (inactive); GI50 (SNB-75): 15.7 µM (inactive); GI50 (NCI-H226): 11.3 µM (inactive); GI50 (OVCAR-8): 8.02 µM (inactive); GI50 (CAKI-1): 3.92 µM (inactive); GI50 (MDA-N): 20.7 µM (inactive); GI50 (RPMI-8226): 7.35 µM (inactive); GI50 (MOLT-4): 2.44 µM (inactive); GI50 (SN12C): 20.7 µM (inactive); GI50 (CCRF-CEM): 1.83 µM (inactive); GI50 (NCI-H23): 14.2 µM (inactive); GI50 (SW-620): 3.47 µM (inactive); GI50 (UACC-257): 16.1 µM (inactive); GI50 (EKVX): 9.04 µM (inactive); GI50 (A549): 19.4 µM (inactive); GI50 (NCI-H460): 8.18 µM (inactive); GI50 (UACC-62): 15.9 µM (inactive); GI50 (SR): 3.05 µM (inactive); GI50 (A498): 18.9 µM (inactive); GI50 (OVCAR-4): 23.2 µM (inactive); GI50 (786-0): 4.43 µM (inactive); GI50 (HOP-92): 2.15 µM (inactive); GI50 (NCI/ADR-RES): 19.6 µM (inactive); GI50 (SK-MEL-28): 11.5 µM (inactive); GI50 (HCT-116): 11.3 µM (inactive); GI50 (IGROV-1): 13.6 µM (inactive); GI50 (NCI-H522): 1.41 µM (inactive); GI50 (Malme-3M): 2.04 µM (inactive); GI50 (SNB-19): 20 µM (inactive)
